Results: PMC7804942, “The amphibian peptide Yodha is virucidal for Zika and dengue viruses” (Scientific Reports, 2021)
pIC50: −log10 of the molar value. Like-named read-outs stand apart in the source and are kept apart here. Where a SMILES comes first, the peptide text is derived from it.

Tests used:
ZIKV [1] = assay: Post-infection treatment of ZIKV-infected Vero cells, FFU assay of supernatants; assay type: cell-based, Zika virus; conditions: 40 µM peptide added after infection, FFU of supernatant
Method: Next, we determined whether the observed Yodha peptide-induced decrease in viral titers was due to blocked viral entry. We reasoned that if the peptide directly kills or disrupts the envelope structure of ZIKV, this would prevent virus entry. To test this, we designed an experiment to measure virus entry, by allowing ZIKV to bind cells at 4 °C for 1 h followed by shifting the cells to 37 °C to permit virus entry (Fig. 2A). It has been shown that DENV2 entry occurs within 25 min by early endosome trafficking. Briefly, we exposed ZIKV to Yodha peptide and then allowed the virus to infect Vero cells for 30 min. We then measured viral RNA within the Vero cells by quantitative Real Time-PCR (qRT-PCR) (Fig. 2B). […] Next, we visualized ZIKV entry or lack thereof by immunofluorescence using antibodies against pan flavivirus E protein. […] We collected culture supernatants at 3, 24, 48, and 72 h after ZIKV infection to quantitate ZIKV by FFU assay (Fig. 2E). ZIKV was not detected at 3 h post-infection in both OVA- or Yodha-treated cells. […]
Figure 2 Yodha peptide inhibits ZIKV entry into cells. […] (B) ZIKV was treated with 200 µM of Yodha or control OVA peptide for 30 min and then used to infect Vero cells at a MOI of 0.5 and expression of ZIKV RNA was determined by quantitative RT-PCR (qRT-PCR). […] Error bars indicate the SEM of four technical replicates statistical significance was assessed by a 2-way ANOVA.

ZIKV [2] = assay: ZIKV neutralisation by mutant, enantiomer and variant peptides (strain not stated); assay type: cell-based, Zika virus
Method: To further characterize Yodha peptide, we generated alanine-scanning mutants of the peptide, which removes the side chain, but maintains peptide conformation, allowing for the assessment of the significance of each amino acid within the larger structure (Fig. 4A). Each of 23 mutated peptides was tested for its (a) ability to neutralize ZIKV (Fig. 4B) and (b) toxicity against human RBC, if any (Fig. 4C).
So next, we sought to determine how common this peptide or its analogs are in host defense peptides isolated from elsewhere in the world. […] We then determined the extent to which any of these variant peptides can neutralize ZIKV. […] We also generated a series of mutant Yodha peptides, including one which lacks the C terminal DDQERC, a short 12 peptide fragment that lacks the EEERGA from variant #12, and a S1P peptide that replace S1-P in the full-length Yodha (Fig. 5D) and tested their activity against ZIKV (Fig. 5D).
(§1) Peptides were incubated with ZIKV (100 FFU/well) for 2 h at 37 °C. This incubated mixture was used to infect Vero cells for 1.5 h at 37 °C. Cells and inoculum were overlaid with 2% methylcellulose solution (OptiMEM; Gibco) and incubated for 72 h at 37 °C. Cells were washed with PBS and fixed with a 1:1 methanol/acetone mixture for 30 min. Cells were blocked with 5% milk/PSB at room temperature for 20 min and incubated with primary antibody (anti-flavivirus mouse 4G2[10] antibody) for 2 h at 37 °C. Then, cells were incubated with secondary antibody (HRP-conjugated goat anti-mouse IgG, Cell Signaling) for 1 h at 37 °C. Cells were developed with TrueBlue Peroxidase Substrate (KPL). Plates were read on a CTL-ImmunoSpot S6 Micro analyzer.

ZIKV (PRVABC59 strain) = conditions: for reduction of ZIKV: dose escalation
Method: We screened frog skin peptides to identify peptides with potentially virucidal activity against ZIKV infection. Briefly, we incubated individual peptides with ZIKV (PRVABC59 strain) for 2 h and then tested viral viability in a focus-forming assay. […] A significant drawback of host defense peptides is that they can be toxic to mammalian cells. To identify non-toxic candidates among the 12 peptides, we measured the toxicity of each peptide against human erythrocytes. […] The C-terminus of Yodha peptide contains three negatively charged amino acids.
as §1, with “Peptides were incubated with ZIKV (100 FFU/well) for 2 h at 37 °C.” left out

[3] = test system: ZIKV DakAr41524 (Senegal 1984); assay: Focus forming assay, ZIKV strain panel; assay type: cell-based, Zika virus; conditions: 50 µM and 100 µM peptide vs OVA control, FFA
Method: (§2) For all our experiments in Fig. 1, we used the PRVABC59 (Puerto Rico 2015) strain of ZIKV. […] The Yodha peptide inhibited all ZIKV strains (Fig. 1H,I).
as §1

[4] = test system: ZIKV P6-740 (Malaysia, 1966); assay: Focus forming assay, ZIKV strain panel; assay type: cell-based, Zika virus; conditions: 50 µM and 100 µM peptide vs OVA control, FFA
Method: as §2, §1

[5] = test system: ZIKV MR-766 (Uganda, 1947); assay: Focus forming assay, ZIKV strain panel; assay type: cell-based, Zika virus; conditions: 50 µM and 100 µM peptide vs OVA control, FFA
Method: as §2, §1

What does the source list for `CC[C@H](C)[C@H](NC(=O)[C@@H](NC(=O)CNC(=O)[C@H](CC(C)C)NC(=O)[C@H](Cc1ccccc1)NC(=O)[C@H](Cc1ccccc1)NC(=O)[C@H](CC(C)C)NC(=O)[C@H](CC(C)C)NC(=O)[C@H](CC(C)C)NC(=O)[C@H](CCSC)NC(=O)[C@@H](N)CO)[C@@H](C)O)C(=O)N[C@@H](CO)C(=O)N[C@@H](CC(C)C)C(=O)N[C@@H](CO)C(=O)N[C@@H](CC(C)C)C(=O)N[C@@H](CS)C(=O)N[C@@H](CCC(N)=O)C(=O)N[C@@H](CC(=O)O)C(=O)N[C@@H](CC(=O)O)C(=O)N[C@@H](CCC(N)=O)C(=O)N[C@@H](CCC(=O)O)C(=O)N[C@@H](CCCNC(=N)N)C(=O)N[C@@H](CS)C(=O)O` [Yodha] (H-SMLLLFFLGTISLSLCQDDQERC-OH; N-terminus and C-terminus assumed)?
reduction in ZIKV production (ZIKV [1]; 48 h post-infection): 60–70%; reduction in ZIKV production (ZIKV [1]; 72 h post-infection): 60–70%; anti-viral activity against ZIKV, D- versus L-enantiomer (ZIKV [2]): comparable anti-viral activity; reduction of ZIKV (ZIKV (PRVABC59 strain); 10 µM peptide, FFA): 35%; reduction of ZIKV (ZIKV (PRVABC59 strain); 20 µM peptide, FFA): 50%; Viral titers (FFU) after timed exposure (ZIKV (PRVABC59 strain); 20 µM peptide, exposure 5 min, 15 min, 30 min, 1 h and 2 h, all time points): significantly decreased; reduction of ZIKV (ZIKV (PRVABC59 strain); 40 µM peptide, FFA): 65%; inhibition of ZIKV strain (ZIKV (PRVABC59 strain); 50 µM and 100 µM peptide vs OVA control, FFA): inhibited; reduction of ZIKV (ZIKV (PRVABC59 strain); 80 µM peptide, FFA): 80%; reduction of ZIKV (ZIKV (PRVABC59 strain); 160 µM peptide, FFA): 90%; pIC50 (ZIKV (PRVABC59 strain); PRVABC59 strain, 2 h): 4.70; time of exposure needed to neutralize / destroy ZIKV (ZIKV (PRVABC59 strain); exposure of virus to peptide): ≤ 5 min; inhibition of ZIKV strain [3]: inhibited; inhibition of ZIKV strain [4]: inhibited; inhibition of ZIKV strain [5]: inhibited
